Measurements taken from the supplement of paper PMC10307832.

Key:
Test in all cases: relative viability (nuclei count vs DMSO), 5 days (fraction); higher = more cells survive
[1] = compound: COc1cc2ncn(-c3cc(OCc4ccccc4C(F)(F)F)c(C(N)=O)s3)c2cc1OC + CCNC(=O)c1noc(-c2cc(C(C)C)c(O)cc2O)c1-c1ccc(CN2CCOCC2)cc1 [Luminespib] (partner 0.01 µM)
Outline: (§1)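 Five library-drug doses in √10 steps were combined with a fixed anchor-drug dose, or a single drug was given alone, by pin tool to lung cancer cell lines in 1536-well plates the day after seeding. Nuclei were stained and counted after 5 days. Relative viability is the nuclei count in treated wells over that in vehicle wells, taken as the median of duplicate plates.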

[2] = compound: COc1cc2ncn(-c3cc(OCc4ccccc4C(F)(F)F)c(C(N)=O)s3)c2cc1OC + COc1cccc2cc(-c3nc([C@H]4CC[C@H](C(=O)O)CC4)n4ncnc(N)c34)[nH]c12 [OSI-027] (partner 0.5 µM)
Outline: as §1

[3] = compound: COc1cc2ncn(-c3cc(OCc4ccccc4C(F)(F)F)c(C(N)=O)s3)c2cc1OC + CS(=O)(=O)CCNCc1ccc(-c2ccc3ncnc(Nc4ccc(OCc5cccc(F)c5)c(Cl)c4)c3c2)o1 [Lapatinib] (partner 2 µM)
Outline: as §1

[4] = compound: COc1cc2ncn(-c3cc(OCc4ccccc4C(F)(F)F)c(C(N)=O)s3)c2cc1OC + C[C@]1(O)C[C@@H](c2nc(-c3ccc4ccc(-c5ccccc5)nc4c3)c3c(N)nccn32)C1 [Linsitinib] (partner 1 µM)
Outline: as §1

Cell Line	relative viability ([1]; first compound 0.05 µM)	relative viability ([1]; first compound 0.1581 µM)	relative viability ([1]; first compound 0.5 µM)	relative viability ([1]; first compound 1.581 µM)	relative viability ([1]; first compound 5 µM)	relative viability ([2]; first compound 0.05 µM)	relative viability ([2]; first compound 0.1581 µM)	relative viability ([2]; first compound 0.5 µM)	relative viability ([2]; first compound 1.581 µM)	relative viability ([2]; first compound 5 µM)	relative viability ([3]; first compound 0.05 µM)	relative viability ([3]; first compound 0.1581 µM)	relative viability ([3]; first compound 0.5 µM)	relative viability ([3]; first compound 1.581 µM)	relative viability ([3]; first compound 5 µM)	relative viability ([4]; first compound 0.05 µM)	relative viability ([4]; first compound 0.1581 µM)	relative viability ([4]; first compound 0.5 µM)	relative viability ([4]; first compound 1.581 µM)	relative viability ([4]; first compound 5 µM)
LXF-289	0.42	0.483	0.259	0.0958	0.0607	0.815	0.755	0.214	0.0606	0.0476	0.912	0.709	0.647	0.147	0.0707	0.884	0.762	0.158	0.0992	0.0585
NCI-H1563	0.587	0.501	0.513	0.474	0.4	0.853	0.687	0.798	0.57	0.488	1.04	1.02	0.877	0.748	0.588	1.22	1.18	1.22	1.21	0.799
HCC-44	0.854	1.13	0.613	0.168	0.132	0.626	0.484	0.216	0.187	0.161	1.06	0.976	0.987	0.0934	0.171	0.773	0.621	0.55	0.141	0.109
PC-3 [JPC-3]	0.66	0.712	0.486	0.221	0.19	0.79	0.767	0.423	0.169	0.198	0.443	0.508	0.37	0.227	0.263	0.91	0.945	0.744	0.309	0.286
HOP-62	0.966	0.638	0.708	0.176	0.123	0.846	0.888	0.537	0.226	0.144	1.01	1.08	0.829	0.233	0.121	0.95	0.966	0.547	0.116	0.0914
NCI-H358	0.26	0.378	0.29	0.102	0.13	0.744	0.726	0.549	0.0578	0.067	0.553	0.435	0.371	0.175	0.145	0.693	0.678	0.349	0.155	0.141
SK-MES-1	0.725	0.83	0.266	0.167	0.182	0.554	0.602	0.219	0.129	0.143	0.445	0.459	0.482		0.335	1.03	1.01	0.745		0.362
NCI-H1666	1.06	0.937	0.508	0.36	0.363	0.895	0.778	0.543	0.362	0.366	0.905	0.674	0.298	0.229	0.325	0.821	0.953	0.37	0.219	0.248
